Patent publication US20260250318A1, “COMPOSITIONS AND METHODS FOR CROSSING THE BLOOD BRAIN BARRIER” (VOYAGER THERAPEUTICS, INC., priority 2022, published 2026)

Experiments:
[1] = tested on: brains, heart, liver, muscle, and DRG of the NHPs; assay: Maturation of TTM-001 and TTM-002 capsids, NGS enrichment in NHP tissues; assay type: in vivo; details: relative to AAV9 control
Procedure, shortened: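 Variants carry mutations within and flanking the loop IV peptide insert: positions 450–466 were triplet-randomized, while positions 449–466 received low-frequency point mutations. The combined pool went into two NHPs, and each peptide was scored by NGS enrichment ratio against AAV9.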

[2] = tested on: brain; assay: Matured TTM-001 and TTM-002 variants, NGS enrichment in mouse brain; assay type: in vivo, mice; details: relative to AAV9 control
[3] = NGS fold-enrichment of RNA, NHP brain
[4] = NGS fold-enrichment, NHP liver DNA
[5] = NGS fold-enrichment, NHP liver RNA
[6] = NGS fold-enrichment, NHP muscle
[7] = NGS fold-enrichment, mouse brain
[8] = NGS fold-enrichment of matured AAV capsid variants, NHP brain, RNA
[9] = NGS fold-enrichment, DRG of NHPs
[10] = NGS fold-enrichment, RNA, brain of NHPs
[11] = NGS fold-enrichment, heart of NHPs
[12] = NGS fold-enrichment, liver DNA of NHPs
[13] = NGS fold-enrichment, liver RNA of NHPs
[14] = NGS fold-enrichment, muscle of NHPs
[15] = NGS fold-enrichment, brain of mice

Sequence | Fold Enrichment relative to AAV9, Brain (NHP) [1, 3] [fold] | Fold Enrichment relative to AAV9, DRG (NHP) ([1]; NGS fold-enrichment, NHP DRG) [fold] | Fold Enrichment relative to AAV9, Heart (NHP) ([1]; NGS fold-enrichment, NHP heart) [fold] | Fold Enrichment relative to AAV9, Liver DNA (NHP) [1, 4] [fold] | Fold Enrichment relative to AAV9, Liver RNA (NHP) [1, 5] [fold] | Fold Enrichment relative to AAV9, Muscle (NHP) [1, 6] [fold] | Fold Enrichment relative to AAV9, Brain (Mouse) [2, 7] [fold] | Fold Enrichment relative to AAV9, Brain (NHP) [1, 8] [fold] | Fold Enrichment relative to AAV9, DRG (NHP) ([1]; NHP DRG) [fold] | Fold Enrichment relative to AAV9, Heart (NHP) ([1]; NHP heart) [fold] | Fold Enrichment relative to AAV9, Liver DNA (NHP) ([1]; NHP liver, DNA) [fold] | Fold Enrichment relative to AAV9, Liver RNA (NHP) ([1]; NHP liver, RNA) [fold] | Fold Enrichment relative to AAV9, Muscle (NHP) ([1]; NHP muscle) [fold] | Fold Enrichment relative to AAV9, DRG (NHP) [1, 9] [fold] | Fold Enrichment relative to AAV9, Brain (NHP) [1, 10] [fold] | Fold Enrichment relative to AAV9, Heart (NHP) [1, 11] [fold] | Fold Enrichment relative to AAV9, Liver DNA (NHP) [1, 12] [fold] | Fold Enrichment relative to AAV9, Liver RNA (NHP) [1, 13] [fold] | Fold Enrichment relative to AAV9, Muscle (NHP) [1, 14] [fold] | Fold Enrichment relative to AAV9, Brain (Mouse) [2, 15] [fold] | further results
KAVNGHDSPHKSVQNQQT | 81.051 | 0.448 | 0.051 | 0.091 | 0.665 | 0.000 | 11.288 | – | – | – | – | – | – | – | – | – | – | – | – | – | –
KAVNVSGSPHSKAQNQQT | – | – | – | – | – | – | – | 54.586 | 0.000 | 0.000 | 0.023 | 0.000 | 0.000 | – | – | – | – | – | – | – | Fold Enrichment relative to AAV9, Brain (Mouse) ([2]; mouse brain): 57.835 fold
KEFVGSGSPHSKAQNQQT | – | – | – | – | – | – | – | 58.374 | 0.000 | 0.046 | 0.326 | 0.088 | 0.000 | – | – | – | – | – | – | – | Fold Enrichment relative to AAV9, Brain (Mouse) ([2]; mouse brain): 128.675 fold
KEINGRGSPHSKAQNQQT | 134.390 | 0.239 | 0.000 | 0.232 | 0.000 | 0.000 | 52.311 | – | – | – | – | – | – | 0.239 | 134.390 | 0.000 | 0.232 | 0.000 | 0.000 | 52.311 | –
KELHGSGSPHSKAQNQQT | 102.680 | 0.000 | 0.000 | 0.592 | 1.634 | 0.000 | 96.554 | – | – | – | – | – | – | 0.000 | 102.680 | 0.000 | 0.592 | 1.634 | 0.000 | 96.554 | –
KESDGSGSPHSKAQNQQT | – | – | – | – | – | – | – | – | – | – | – | – | – | 0.000 | 63.766 | 0.000 | 0.146 | 0.567 | 0.000 | 115.231 | –
KEVHGSGSPHSKAQNQQT | – | – | – | – | – | – | – | – | – | – | – | – | – | 0.000 | 67.901 | 0.000 | 0.000 | 0.727 | 0.000 | 100.111 | –
KEVQGSGSPHSKAQNQQT | – | – | – | – | – | – | – | 58.125 | 0.000 | 0.000 | 0.000 | 0.657 | 0.000 | – | – | – | – | – | – | – | Fold Enrichment relative to AAV9, Brain (Mouse) ([2]; mouse brain): 168.220 fold
